Laboratory results from patent US8912202B2, “N-(benzimimdazol-2-yl)-cyclopropane carboxamides as lysophosphatidic acid antagonists” (Merck Patent GmbH, priority 2011, dated 2014).

Target: T1, LPA2R (Homo sapiens, UniProt Q9HBW0)
T1 construct: expressed in transfected cells; host or cells: U2OS
Assay: LPA2R-Calciumflux assay (FLIPR, intracellular calcium mobilisation after LPA)
Format: cell-based
Settings: U2OS cells recombinant expressing LPA2R; antagonism of LPA-induced calcium flux; racemate of the two trans enantiomers unless marked enantiomer
Excerpt: The assay detects intra cellular calcium which is generated by cells upon activation of the LPA2 receptor by its ligand LPA. This transient calcium mobilization can be monitored using a commercial calcium detection kit (e.g. from Molecular Devices). The main component of such a kit is a dye, which becomes fluorescent when calcium is present—a transient fluorescence signal after addition of a ligand to a test well are the result. Readers like the FLIPR (Molecular Devices) can be used to monitor such transient “Ca-flux” signals.
The signals are calculated according to peak maximum minus base line.
Compounds which are antagonists of LPA lead to a decreased mobilisation of intracellular calcium and thus to a lower signal. The assay is performed in microplates (384 wells per plate).
LPA2R-Calciumflux Assay Protocol
The assay is run according to the following procedure:
50 uL seed cells (10000 cells/well in DMEM buffer)
• Incubate 24 h at 37° C., 10% CO2 • aspirate medium 50 uL add calcium dye 1×HBSS/HEPES buffer • incubate 1 h at 37° C. (“loading”) • equilibrate 10 min at RT 5 uL add compounds in HEPES buffer • shake 10 sec. at 1000 rpm • incubate 15 min at RT 20 uL add LPA (in the FLIPR Tetra) in Krebs-buffer/BSA & measurement
The cells are seeded in DMEM buffer (DMEM, 10% FCS, 10 mM HEPES, 1% Pen/Strep).
Dye loading is done in HBSS/HEPES buffer (100 mL 10×HBSS+20 mL 1M HEPES+880 mL water, pH 7.4)
The LPA is added in Krebs/BSA buffer (120 mM NaCl, 5 mM KCl, 0.62 mM MgSO4, 1.8 mM CaCl2, 10 mM HEPES, 6 mM D(+)-Glucose, 0.2% BSA, pH 7.4).
The compounds are pre-diluted in HEPES buffer (20 mM, pH 7.4), whereby the final DMSO content in the assay is kept at 1%. The compounds are pre-diluted in order to generate dose response series on the microplates. The dose response series consist of 10 concentrations for each compound from 30 uM final to 1 nM final. From all compound wells the resulting signals are referred to control wells (located on each plate besides the compound wells) in terms of % activity.
From these % activity values—along with the corresponding compound concentrations—IC50 values are fitted for each compound using standard fitting programs such as Graphpad Prism. Here the method “log(inhibitor) vs. response—Variable slope” is used.

T1 sequence (Q9HBW0 whole entry): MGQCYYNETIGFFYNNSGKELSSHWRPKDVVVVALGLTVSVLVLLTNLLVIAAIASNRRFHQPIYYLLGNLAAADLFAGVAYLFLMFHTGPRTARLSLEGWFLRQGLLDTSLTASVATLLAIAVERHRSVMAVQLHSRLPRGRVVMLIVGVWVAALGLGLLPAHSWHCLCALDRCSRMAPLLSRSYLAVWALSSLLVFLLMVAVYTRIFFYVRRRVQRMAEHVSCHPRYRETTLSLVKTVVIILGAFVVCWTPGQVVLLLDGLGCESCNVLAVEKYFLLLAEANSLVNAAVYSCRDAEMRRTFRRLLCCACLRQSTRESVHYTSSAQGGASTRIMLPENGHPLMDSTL

| SMILES | IC50 |
| --- | --- |
| O=C(OCc1ccccc1)C1CCN(CNc2cccc3[nH]c(NC(=O)C4CC4c4ccccc4)nc23)C1 (racemic) [1-({2-[(2-Phenyl-cyclopropane-carbonyl)-amino]-1H-benzoimidazol-4-ylamino)-methyl)-pyrrolidine-3-carboxylic acid benzyl ester] | 1000 to 10000 nM |
| O=C(Nc1nc2ccccc2[nH]1)C1C(c2ccccc2)C1(F)F (racemic) [2,2-Difluoro-3-phenyl-cyclopropane-carboxylic acid (1H-benzoimidazol-2-yl)-amide] | 100 to 1000 nM |
| O=C(Nc1nc2ccc(Cl)cc2[nH]1)C1C(c2ccccc2)C1(F)F (racemic) [2,2-Difluoro-3-phenyl-cyclopropane-carboxylic acid (6-chloro-1H-benzoimidazol-2-yl)-amide] | 10 to 100 nM |
| N#Cc1ccc2nc(NC(=O)C3C(c4ccccc4)C3(F)F)[nH]c2c1 (racemic) [2,2-Difluoro-3-phenyl-cyclopropane-carboxylic acid (6-cyano-1H-benzoimidazol-2-yl)-amide] | 100 to 1000 nM |
| O=C(Nc1nc2ccc(C(F)(F)F)cc2[nH]1)C1C(c2ccccc2)C1(F)F (racemic) [2,2-Difluoro-3-phenyl-cyclopropane-carboxylic acid (6-trifluoromethyl-1H-benzoimidazol-2-yl)-amide] | 100 to 1000 nM |
| CC1(C)C(C(=O)Nc2nc3ccccc3[nH]2)C1c1ccccc1 (racemic) [2,2-Dimethyl-3-phenyl-cyclopropane-carboxylic acid (1H-benzoimidazol-2-yl)-amide] | > 10000 nM |
| CC1(C)C(C(=O)Nc2nc3ccc(Cl)cc3[nH]2)C1c1ccccc1 (racemic) [2,2-Dimethyl-3-phenyl-cyclopropane-carboxylic acid (6-chloro-1H-benzoimidazol-2-yl)-amide] | > 10000 nM |
| CC1(C)C(C(=O)Nc2nc3ccc(C#N)cc3[nH]2)C1c1ccccc1 (racemic) [2,2-Dimethyl-3-phenyl-cyclopropane-carboxylic acid (6-cyano-1H-benzoimidazol-2-yl)-amide] | > 10000 nM |
| CC1(C)C(C(=O)Nc2nc3ccc(C(F)(F)F)cc3[nH]2)C1c1ccccc1 (racemic) [2,2-Dimethyl-3-phenyl-cyclopropane-carboxylic acid (6-trifluoromethyl-1H-benzoimidazol-2-yl)-amide] | > 10000 nM |
| O=C(Nc1nc2ccccc2[nH]1)C1CC1c1cccc(Cl)c1Cl (racemic) [2-(2,3-Dichloro-phenyl)-cyclopropane-carboxylic acid (1H-benzoimidazol-2-yl)-amide] | 100 to 1000 nM |
| O=C(Nc1nc2ccccc2[nH]1)C1CC1c1c(Cl)cccc1Cl (racemic) [2-(2,6-Dichloro-phenyl)-cyclopropane-carboxylic acid (1H-benzoimidazol-2-yl)-amide] | > 10000 nM |
| O=C(Nc1nc2ccccc2[nH]1)C1CC1c1ccccc1Cl (racemic) [2-(2-Chloro-phenyl)-cyclopropane-carboxylic acid (1H-benzoimidazol-2-yl)-amide] | 10 to 100 nM |
| N#Cc1ccc2nc(NC(=O)C3CC3c3ccccc3Cl)[nH]c2c1 (racemic) [2-(2-Chloro-phenyl)-cyclopropane-carboxylic acid (6-cyano-1H-benzoimidazol-2-yl)-amide] | 10 to 100 nM |
| O=C(Nc1nc2ccc(C(F)(F)F)cc2[nH]1)C1CC1c1ccccc1Cl (racemic) [2-(2-Chloro-phenyl)-cyclopropane-carboxylic acid (6-trifluoromethyl-1H-benzoimidazol-2-yl)-amide] | 10 to 100 nM |
| CN(C)c1ccccc1C1CC1C(=O)Nc1nc2ccccc2[nH]1 (racemic) [2-(2-Dimethylamino-phenyl)-cyclopropane-carboxylic acid (1H-benzoimidazol-2-yl)-amide] | 100 to 1000 nM |
| O=C(Nc1nc2ccccc2[nH]1)C1CC1c1ccccc1F (racemic) [2-(2-Fluoro-phenyl)-cyclopropane-carboxylic acid (1H-benzoimidazol-2-yl)-amide] | 100 to 1000 nM |
| O=C(Nc1nc2ccccc2[nH]1)C1CC1c1ccccc1C(F)(F)F (racemic) [2-(2-Trifluoromethyl-phenyl)-cyclopropane-carboxylic acid (1H-benzoimidazol-2-yl)-amide] | > 10000 nM |
| O=C(Nc1nc2ccccc2[nH]1)C1CC1c1cccc(Br)c1 (racemic) [2-(3-Bromo-phenyl)-cyclopropane-carboxylic acid (1H-benzoimidazol-2-yl)-amide] | 10 to 100 nM |

| SMILES | IC50 |
| --- | --- |
| O=C(Nc1nc2ccccc2[nH]1)C1CC1c1cccc(Cl)c1 (racemic) [2-(3-Chloro-phenyl)-cyclopropane-carboxylic acid (1H-benzoimidazol-2-yl)-amide] | 100 to 1000 nM |
| N#Cc1cccc(C2CC2C(=O)Nc2nc3ccccc3[nH]2)c1 (racemic) [2-(3-Cyano-phenyl)-cyclopropane-carboxylic acid (1H-benzoimidazol-2-yl)-amide] | 100 to 1000 nM |
| CN(C)c1cccc(C2CC2C(=O)Nc2nc3ccccc3[nH]2)c1 (racemic) [2-(3-Dimethylamino-phenyl)-cyclopropane-carboxylic acid (1H-benzoimidazol-2-yl)-amide] | 100 to 1000 nM |
| O=C(Nc1nc2ccccc2[nH]1)C1CC1c1cccc(F)c1 (racemic) [2-(3-Fluoro-phenyl)-cyclopropane-carboxylic acid (1H-benzoimidazol-2-yl)-amide] | 10 to 100 nM |
| O=C(Nc1nc2cc(Cl)cnc2[nH]1)C1CC1c1cccc(F)c1 (racemic) [2-(3-Fluoro-phenyl)-cyclopropane-carboxylic acid (6-chloro-3H-imidazo[4,5-b]pyridin-2-yl)-amide] | < 10 nM |
| N#Cc1ccc2nc(NC(=O)C3CC3c3cccc(F)c3)[nH]c2c1 (racemic) [2-(3-Fluoro-phenyl)-cyclopropane-carboxylic acid (6-cyano-1H-benzoimidazol-2-yl)-amide] | < 10 nM |
| COc1cccc(C2CC2C(=O)Nc2nc3ccccc3[nH]2)c1 (racemic) [2-(3-Methoxy-phenyl)-cyclopropane-carboxylic acid (1H-benzoimidazol-2-yl)-amide] | > 10000 nM |
| O=C(Nc1nc2ccccc2[nH]1)C1CC1c1cccc([N+](=O)[O-])c1 (racemic) [2-(3-Nitro-phenyl)-cyclopropane-carboxylic acid (1H-benzoimidazol-2-yl)-amide] | 10 to 100 nM |
| O=C(Nc1nc2ccccc2[nH]1)C1CC1c1ccc(Cl)cc1 (racemic) [2-(4-Chloro-phenyl)-cyclopropane-carboxylic acid (1H-benzoimidazol-2-yl)-amide] | > 10000 nM |
| CN(C)c1ccc(C2CC2C(=O)Nc2nc3ccccc3[nH]2)cc1 (racemic) [2-(4-Dimethylamino-phenyl)-cyclopropane-carboxylic acid (1H-benzoimidazol-2-yl)-amide] | 1000 to 10000 nM |
| O=C(Nc1nc2ccccc2[nH]1)C1CC1c1ccc(F)cc1 (racemic) [2-(4-Fluoro-phenyl)-cyclopropane-carboxylic acid (1H-benzoimidazol-2-yl)-amide] | 10 to 100 nM |
| COc1ccc(C2CC2C(=O)Nc2nc3ccccc3[nH]2)cc1 (racemic) [2-(4-Methoxy-phenyl)-cyclopropane-carboxylic acid (1H-benzoimidazol-2-yl)-amide] | 1000 to 10000 nM |
| O=C(Nc1nc2ccccc2[nH]1)C1CC1c1ccc(C(F)(F)F)cc1 (racemic) [2-(4-Trifluoromethyl-phenyl)-cyclopropane-carboxylic acid (1H-benzoimidazol-2-yl)-amide] | 1000 to 10000 nM |
| CC(C)(C)c1ccc(C2CC2C(=O)Nc2nc3ccccc3[nH]2)cc1 (racemic) [2-(4-tert-Butyl-phenyl)-cyclopropane-carboxylic acid (1H-benzoimidazol-2-yl)-amide] | > 10000 nM |
| O=C(Nc1nc2ccccc2[nH]1)C1CC1c1cc(Br)ccc1F (racemic) [2-(5-Bromo-2-fluoro-phenyl)-cyclopropane-carboxylic acid (1H-benzoimidazol-2-yl)-amide] | 10 to 100 nM |
| Cn1c(NC(=O)C2CC2c2ccccc2)nc2ccccc21 (racemic) [2-Phenyl-cyclopropane-carboxylic acid (1-methyl-1H-benzoimidazol-2-yl)-amide] | > 10000 nM |
| O=C(Nc1nc2ccccc2[nH]1)C1CC1c1ccccc1 (racemic) [2-Phenyl-cyclopropane-carboxylic acid (1H-benzoimidazol-2-yl)-amide] | 10 to 100 nM |
| CN(C(=O)C1CC1c1ccccc1)c1nc2ccccc2[nH]1 (racemic) [2-Phenyl-cyclopropane-carboxylic acid (1H-benzoimidazol-2-yl)-methyl-amide] | 1000 to 10000 nM |
